Patent US20210290680A1, “METHODS AND COMPOSITIONS FOR MODULATING CELLULAR AGING” (Dorian Therapeutics, Inc., priority 2019, published 2021)

How the values were obtained:
[1] = tested on: activated primary T cells; assay: Navitoclax-induced cell death (Sytox-negative cell count after 72 hours); type: cell-based, human; details: Younger T cells (day 12) compared with Older T cells (day 24)
Method: Activated primary T cells were treated with the indicated amount of Navitoclax. Navitoclax is a senolytic drug selectively targeting senescent cells (Zhu et al., Aging Cell, 2016). After 72 hours, Sytox-negative T cells were counted by flow cytometry using MACSQuant (Myltenyi Biotec). […] In each experiment two different primary T cell cultures were tested for each condition (four replicas for each condition). DMSO is a negative control. Navitoclax (cat #HY-10087) was purchased from MCE. Primary T cells were activated as described (Example 3) and transduced with a lentivirus encoding either a shUSP16 or a non-targeting shRNA (shC). T cells were then treated with the indicated amount of Navitoclax. After 72 hours, Sytox-negative GFP+ cells were counted, and the numbers of dead cells were calculated as 100%−(#treated/#untreated) cells. Two different time points were tested (day 12, day 22) with two different primary T cell cultures (four replicas per each condition).

[2] = tested on: primary T cells; assay: Stem cell memory T cell phenotype by flow cytometry (CD45RA+CD62L+); type: cell-based, human; details: CRISPR knockout, day 15 post-activation
Method: Primary T cells were activated as described (Example 3), transduced with a lentivirus encoding for either a shUSP16 or a non-targeting shRNA (Ctrl) and sorted for GFP on day 8. Cells were cultured in the presence of IL-2 and their phenotype was analyzed at day 20. Cells were stained for CD4-PerCP-5.5 or CD8-BV510, CD62L-Allophycocyanin, CD45RA-BV510 or PE-Cy7 (Biolegend). Naïve or stem cell memory T cells (TNa/SCM) were identified as Sytox^− GFP^+CD45RA^+CD62L^+. Number of TNa/SCM was calculated as (#CD4 or CD8 T cells*TNa/SCMpercentage)/100. Flow cytometry was performed on the MACQuant (Myltenyi Biotec) and the data analyzed with FlowJo (shCtrl vs shUSP CD4: 0.4978 vs 0.7915, p=0.0673 and CD8: 2.469 vs 4.984, p=0.00392, n=7). Downregulation of USP16 expression increases the number of CD4+CD45RA+CD62L+(FIG. 11A) and CD8+CD45RA+CD62L+(FIG. 11B) cells in culture by 1.7 (p=0.0205) and 1.9 (p=0.0097) times, respectively.
Primary T cells were activated as described (Example 3), transduced with a lentivirus encoding either a shUSP16 #1, shUSP16 #2 or a non-targeting shRNA (shCtrl) and cells were selected with puromycin at day 6. At day 15 cell were collected and analyzed by qPCR for the expression of LEF1 (FIG. 16A) and TCF7 (FIG. 16B), downstream regulators of the WNT pathway. At day 20, cells were stained for CD4-PE, CD8-BV510, CD62L-Allophycocyanin and CD45RA-APC-Cy7 (Biolegend). Stem cell memory T cells (Tscm) were identified as Sytox^− GFP^+CD45RA^+CD62L^+, central memory T cells (Tcm) as Sytox^−GFP^+CD45RA^−CD62L^+, effector memory T cells (Tem) as Sytox^−GFP^+CD45RA^−CD62L^−, and terminal effector T cell (Teff) as Sytox^−GFP^+CD45RA^+CD62L^− (FIG. 17A). Cells were gated on the CD8 population. The specific increase of Tscm was shown as phenotype ratio (FIG. 17B).
Primary T cells were activated as described (Example 3). At Day 6 post-activation, dynabeads were removed and T cells electroporated using the Neon Transfection System (ThermoFisher) with a 2.5:1 ratio sgRNA:Cas9. The experiment was performed following the protocol optimized for primary T cell by Synthego (CRISPR Editing Human Primary CD4+ T cells with RNPs using Neon Electroporation Protocol, 2018 version). The sgRNA used are the following: gUSP16 #1 5′-[…]-3′ (SEQ ID NO: 10) and gSynthego that comprises 3 different sgRNAs (gRNA-A: 5′-[…] 3′ (SEQ ID NO: 11); gRNA-B: 5′-[…]-3′ (SEQ ID NO: 12); gRNA-C: 5′-[…]-3′ (SEQ ID NO: 13)). Control T cells, identified as Mock, were electroporated but no Cas9:sgRNA mixture was added. […] At day 15 post-activation, cells were stained for CD4-PE, CD8-BV510, CD62L-Allophycocyanin and CD45RA-APC-Cy7 (Biolegend). Stem cell memory T cells (Tscm) were identified as Sytox^−GFP^+CD45RA^+CD62L^+ and graphed as ratio compared to mock cells (FIG. 22). The experiment was repeated using primary T cells obtained from buffy coats of 2 different healthy donors.
Primary T cells were activated as described (Example 3), transduced with a lentivirus encoding for either a CD19.CAR or a GD2.CAR co-expressing shUSP16 #1, shUSP16 #2 or a scrambled shRNA (Control). At day 15, GD2.CAR and CD19.CAR T cells were stained for EGFR-AF488 (R&D), CD3-PE, CD8-BV510, CD62L-Allophycocyanin and CD45RA-APC-Cy7 (Biolegend). Stem cell memory T cells (Tscm) were identified as FITC^+CD45RA^+CD62L^+, central memory T cells (Tcm) as FITC^+CD45RA^−CD62L^+, effector memory T cells (Tem) as FITC^+CD45RA^−CD62L^−, and terminal effector T cell (Teff) as FITC^+CD45RA^+CD62L^−. Cells were gated on the CD8 population. The specific increase of Tscm was shown as phenotype ratio (FIGS. 28A and 28B).

CC1(C)CCC(c2ccc(Cl)cc2)=C(CN2CCN(c3ccc(C(=O)NS(=O)(=O)c4ccc(N[C@H](CCN5CCOCC5)CSc5ccccc5)c(S(=O)(=O)C(F)(F)F)c4)cc3)CC2)C1 [Navitoclax]
sensitivity to Navitoclax-induced cell death [1]: less sensitive

gSynthego: comprises 3 different sgRNAs (gRNA-A, gRNA-B, gRNA-C; SEQ ID NO: 11-13), electroporated with Cas9 (guide 1 GUGUGCAGACACAUUAGAAA; guide 2 UAUUGUCAGUCUUACAGUCU; guide 3 GUUUGGCUGUGUCUUAAAUG; listed as RNA, chemistry not given here)
stem cell memory T cells, ratio compared to mock cells [2]: 1.49

gUSP16 #1: sgRNA 5′-UGGCGUCAGAUAGUGCUUCA-3′ (SEQ ID NO: 10), electroporated with Cas9 (listed as RNA, chemistry not given here)
stem cell memory T cells, ratio compared to mock cells [2]: 1.178
